# Organism: Rattus norvegicus
# Assay: DrugMatrix - Regimen: Daily Repeat
# Format: toxicity, organism-based, Sprague-Dawley
# Parameters: regimen Daily Repeat, gender Male, age 6-8 weeks
# Settings: in vivo, iv, […], vehicle 100 % SALINE; for ALANINE AMINOTRANSFERASE / ALBUMIN / ALKALINE PHOSPHATASE / ASPARTATE AMINOTRANSFERASE / BLOOD UREA NITROGEN / CARBON DIOXIDE / CHLORIDE / CHOLESTEROL / CREATINE PHOSPHOKINASE / CREATININE / GLUCOSE / LACTATE DEHYDROGENASE / LIPASE / PHOSPHORUS / POTASSIUM / SODIUM / TOTAL BILIRUBIN / TOTAL PROTEIN / URIC ACID: tissue Plasma; for ABSOLUTE BASOPHIL / ABSOLUTE EOSINOPHIL / ABSOLUTE LYMPHOCYTE / ABSOLUTE MONOCYTE / ABSOLUTE SEGMENTED NEUTROPHIL / BASOPHIL / EOSINOPHIL / ERYTHROCYTE COUNT / HEMATOCRIT / HEMOGLOBIN / LEUKOCYTE COUNT / LYMPHOCYTE / MEAN CORPUSCULAR HEMOGLOBIN / MEAN CORPUSCULAR HEMOGLOBIN CONCENTRATION / MEAN CORPUSCULAR VOLUME / MONOCYTE / NEUTROPHIL / NUCLEATED RED BLOOD CELLS / PLATELET COUNT: tissue Blood
# [1] = 72 h, dose 0.15 mg/Kg, dose level Low, time 3 day
# [2] = 72 h, dose 1.5 mg/Kg, dose level High, time 3 day
# [3] = 120 h, dose 0.15 mg/Kg, dose level Low, time 5 day
# [4] = 120 h, dose 1.5 mg/Kg, dose level High, time 5 day
smiles,measurement,setting,value
CCC1=C[C@@H]2CN(C1)Cc1c([nH]c3ccccc13)[C@@](C(=O)OC)(c1cc3c(cc1OC)N(C)[C@H]1[C@@](O)(C(=O)OC)[C@H](OC(C)=O)[C@]4(CC)C=CCN5CC[C@]31[C@@H]54)C2 [VINORELBINE],ALANINE AMINOTRANSFERASE,[1],59 u/L
same,ALBUMIN,[1],4.53 G/DL
same,ALKALINE PHOSPHATASE,[1],404 u/L
same,ASPARTATE AMINOTRANSFERASE,[1],88.67 u/L
same,BLOOD UREA NITROGEN,[1],17.33 mg/dL
same,CARBON DIOXIDE,[1],27.33 mmol/L
same,CHLORIDE,[1],101 MEQ/L
same,CHOLESTEROL,[1],68.67 mg/dL
same,CREATINE PHOSPHOKINASE,[1],237.67 u/L
same,CREATININE,[1],0.23 mg/dL
same,GLUCOSE,[1],167.33 mg/dL
same,LACTATE DEHYDROGENASE,[1],308.67 u/L
same,LIPASE,[1],9.67 u/L
same,PHOSPHORUS,[1],13.7 mg/dL
same,POTASSIUM,[1],6.88 MEQ/L
same,SODIUM,[1],145.07 MEQ/L
same,TOTAL BILIRUBIN,[1],0.23 mg/dL
same,TOTAL PROTEIN,[1],6.33 G/DL
same,URIC ACID,[1],2.1 mg/dL
same,ALANINE AMINOTRANSFERASE,[2],45.33 u/L
same,ALBUMIN,[2],4.47 G/DL
same,ALKALINE PHOSPHATASE,[2],359.33 u/L
same,ASPARTATE AMINOTRANSFERASE,[2],137.33 u/L
same,BLOOD UREA NITROGEN,[2],20.67 mg/dL
same,CARBON DIOXIDE,[2],24 mmol/L
same,CHLORIDE,[2],103 MEQ/L
same,CHOLESTEROL,[2],72.67 mg/dL
same,CREATINE PHOSPHOKINASE,[2],671.33 u/L
same,CREATININE,[2],0.17 mg/dL
same,GLUCOSE,[2],185.67 mg/dL
same,LACTATE DEHYDROGENASE,[2],160.33 u/L
same,LIPASE,[2],10 u/L
same,PHOSPHORUS,[2],13 mg/dL
same,POTASSIUM,[2],5.92 MEQ/L
same,SODIUM,[2],146 MEQ/L
same,TOTAL BILIRUBIN,[2],0.1 mg/dL
same,TOTAL PROTEIN,[2],6.2 G/DL
same,URIC ACID,[2],2.37 mg/dL
same,ABSOLUTE BASOPHIL,[3],0 CELLS/uL
same,ABSOLUTE EOSINOPHIL,[3],49 CELLS/uL
same,ABSOLUTE LYMPHOCYTE,[3],14282 CELLS/uL
same,ABSOLUTE MONOCYTE,[3],49 CELLS/uL
same,ABSOLUTE SEGMENTED NEUTROPHIL,[3],2420 CELLS/uL
same,BASOPHIL,[3],0%
same,EOSINOPHIL,[3],0.33%
same,ERYTHROCYTE COUNT,[3],5.78 x10E6/uL
same,HEMATOCRIT,[3],36.1%
same,HEMOGLOBIN,[3],14.13 G/DL
same,LEUKOCYTE COUNT,[3],16.8 x10E3/uL
same,LYMPHOCYTE,[3],84.67%
same,MEAN CORPUSCULAR HEMOGLOBIN,[3],24.47 pg
same,MEAN CORPUSCULAR HEMOGLOBIN CONCENTRATION,[3],39.2 G/DL
same,MEAN CORPUSCULAR VOLUME,[3],62.5 fL
same,MONOCYTE,[3],0.33%
same,NEUTROPHIL,[3],14.67%
same,NUCLEATED RED BLOOD CELLS,[3],0 /100WBC
same,PLATELET COUNT,[3],1168.33 x10E3/uL
same,ABSOLUTE BASOPHIL,[4],0 CELLS/uL
same,ABSOLUTE EOSINOPHIL,[4],0 CELLS/uL
same,ABSOLUTE LYMPHOCYTE,[4],6817.33 CELLS/uL
same,ABSOLUTE MONOCYTE,[4],24.67 CELLS/uL
same,ABSOLUTE SEGMENTED NEUTROPHIL,[4],24.67 CELLS/uL
same,BASOPHIL,[4],0%
same,EOSINOPHIL,[4],0%
same,ERYTHROCYTE COUNT,[4],5.47 x10E6/uL
same,HEMATOCRIT,[4],31.93%
same,HEMOGLOBIN,[4],12.93 G/DL
same,LEUKOCYTE COUNT,[4],6.87 x10E3/uL
same,LYMPHOCYTE,[4],99.33%
same,MEAN CORPUSCULAR HEMOGLOBIN,[4],23.67 pg
same,MEAN CORPUSCULAR HEMOGLOBIN CONCENTRATION,[4],40.5 G/DL
same,MEAN CORPUSCULAR VOLUME,[4],58.4 fL
same,MONOCYTE,[4],0.33%
same,NEUTROPHIL,[4],0.33%
same,NUCLEATED RED BLOOD CELLS,[4],0 /100WBC
same,PLATELET COUNT,[4],359 x10E3/uL
same,ALANINE AMINOTRANSFERASE,[3],48.33 u/L
same,ALBUMIN,[3],4.33 G/DL
same,ALKALINE PHOSPHATASE,[3],436.67 u/L
same,ASPARTATE AMINOTRANSFERASE,[3],85 u/L
same,BLOOD UREA NITROGEN,[3],16.67 mg/dL
same,CARBON DIOXIDE,[3],27 mmol/L
same,CHLORIDE,[3],100.67 MEQ/L
same,CHOLESTEROL,[3],65.33 mg/dL
same,CREATINE PHOSPHOKINASE,[3],245 u/L
same,CREATININE,[3],0.2 mg/dL
same,GLUCOSE,[3],166.33 mg/dL
same,LACTATE DEHYDROGENASE,[3],152 u/L
same,LIPASE,[3],9.33 u/L
same,PHOSPHORUS,[3],12.43 mg/dL
same,POTASSIUM,[3],7.02 MEQ/L
same,SODIUM,[3],145.37 MEQ/L
same,TOTAL BILIRUBIN,[3],0.2 mg/dL
same,TOTAL PROTEIN,[3],6.27 G/DL
same,URIC ACID,[3],2.07 mg/dL
same,ALANINE AMINOTRANSFERASE,[4],58.67 u/L
same,ALBUMIN,[4],4.23 G/DL
same,ALKALINE PHOSPHATASE,[4],367.67 u/L
same,ASPARTATE AMINOTRANSFERASE,[4],138.67 u/L
same,BLOOD UREA NITROGEN,[4],15 mg/dL
same,CARBON DIOXIDE,[4],31.33 mmol/L
same,CHLORIDE,[4],100 MEQ/L
same,CHOLESTEROL,[4],75 mg/dL
same,CREATINE PHOSPHOKINASE,[4],193 u/L
same,CREATININE,[4],0.19 mg/dL
same,GLUCOSE,[4],143.67 mg/dL
same,LACTATE DEHYDROGENASE,[4],98 u/L
same,LIPASE,[4],9 u/L
same,PHOSPHORUS,[4],10.6 mg/dL
same,POTASSIUM,[4],6.34 MEQ/L
same,SODIUM,[4],146.4 MEQ/L
same,TOTAL BILIRUBIN,[4],0.2 mg/dL
same,TOTAL PROTEIN,[4],6.13 G/DL
same,URIC ACID,[4],0.9 mg/dL

# — ChEMBL document CHEMBL3885881, “DrugMatrix”
